From patent US20160031958A1, “METHODS AND COMPOSITIONS USEFUL IN MANIPULATING THE STABILITY OF RE1 SILENCING TRANSCRIPTION FACTOR” (OREGON HEALTH & SCIENCE UNIVERSITY, priority 2014, published 2016)
Values belong to the compound of their own block, whether it stands above or below them. Where a SMILES comes first, the peptide text is derived from it. The star is where a group is joined. Cbz = O=C(OCc1ccccc1)*

Columns and labels:
MEK [1] = test: Native gel / in-gel GFP fluorescence of REST (810-910)-GFP reporter peptide phosphorylation in HEK293T cells; format: cell-based, Human
Method: To interrogate this serine residue, HEK293T cells were transfected with the REST (810-910)-GFP peptide with alanine mutations at S856, S861, and/or S864 as indicated. (S856/864A is S856A/S864A with S861 unmutated; S856/861A is S856A/S861A with S864 unmutated; S861/864A is S861A/S864A with S856 unmutated). […]
Gels were treated the same as in FIG. 5C.
To monitor phosphorylation status of specific REST sites under different circumstances, a cDNA reporter construct that expresses a peptide encoding amino acids 810-to-910 of REST (FIG. 3A) was constructed. Mutant REST (810-910) cDNAs encoding alanine mutations at S861, S864 and at an adjacent site, S856 were also constructed. S856 was minimally phosphorylated in the mass spectrometric analysis described above. […] The constructs also comprise regions that encode N-terminal FLAG and C-terminal eGFP tags (FIG. 3A). These constructs were transfected into HEK cells and expressed. Extracts from the cells were resolved on native gels 24 hours after transfection. The expressed peptides were detected by in-gel GFP fluorescence.
The phosphorylation state of the expressed REST peptides can be visualized by differential migration in native gels due to charge differences. The unmutated S861/S864 REST 810-910 peptide (FIG. 3B, lane 1) migrated predominantly as two distinct bands that were not present upon treatment with lambda phosphatase (FIG. 3B, lane 7). […] The identification of the doubly phosphorylated species was based upon the mobility of an unmutated peptide containing unmutated S861/864 (FIG. 3B, lane 2, S856A), which was not present in samples expressing peptides containing S861A or S864A single mutations (lanes 3 and 4, respectively).
Detection of in gel fluorescence on native 10.5%-14% acrylamide gels (Bio-Rad Cat #345-9949) was performed using the Typhoon imaging system by GE Healthcare Life Science.

MEK [2] = test: Western blot of FLAG-REST protein levels in transfected HEK cells after MEK/ERK inhibitor; format: cell-based, Human; conditions: HEK cells transfected with FLAG-REST cDNA, PD184352 or vehicle for 30 min
Method: To provide further support for this, unmutated REST (810-910) reporter cDNA was transfected into HEK cells and the peptide expressed in the presence and absence of the MEK/ERK inhibitor PD184352. Treatment with PD184352 caused a modest loss from the band at the position representing unmutated S861/S864 peptide and a reciprocal modest increase in the species representing unphosphorylated peptide (FIG. 5C). […] Accordingly, HEK cells transfected with FLAG-REST cDNA were treated with PD184352 for 30 min and the extracts were analyzed by Western blot.
(§1) Whole cell lysates were prepared and immunoprecipitated following the procedures in Ballas N et al, 2001 supra and Nesti E et al, Mol Biol Cell 15, 4073-4088 (2004); incorporated by reference herein. Western blots were performed by standard procedures using antibodies described below and analyzed using anti IgG conjugated to infrared dyes (ThermoFisher) on an Odyssey® infrared fluorescence imager (LiCor). For detecting phosphorylated REST at S861/S864, cell extracts were prepared lacking phosphatase inhibitors. For phosphatase treatment, 75 μg of total protein was treated with 600 U lambda phosphatase (New England Biolabs) or with buffer alone at 30° C. for 1 h, according to the manufacturer's protocol. […] Infrared fluorescence was detected on the Odyssey® imager (LiCor) in the 700 nm channel. […]

endogenous REST protein [3] = test: Western blot of endogenous REST protein after transfection of CTDSP1 cDNA into HEK293T cells; format: cell-based, Human; conditions: HEK293T cells transfected with CTDSP1 cDNA
Method: FIG. 6D is an image of a Western blot analysis showing stabilized endogenous REST protein after transfection of CTDSP1 cDNA into HEK293T cells. α-tubulin is the loading control.
Using a REST phospho-specific polyclonal antibody, it was shown that exogenously expressed FLAG-CTDSP1 dephosphorylated these sites in full-length REST (FIG. 6B). Dephosphorylation by CTDSP1 was also observed in the REST reporter peptides as detected by in-gel fluorescence (FIG. 6C).
as §1

endogenous REST protein [4] = test: Western blot of endogenous REST protein levels in transfected E12.5 neurospheres; format: cell-based; conditions: E12.5 mouse cortical neurospheres after transfection; MG132 4 h; compared to control peptides
Method: FIG. 7B is an image of a Western blot showing endogenous REST protein levels in E12.5 neurospheres after transfection. Lane 1, empty vector; lane 2, control (595-694) peptide; lane 3, REST(810-910) S861/864A peptide; lane 4, REST(810-910) WT peptide; lane 5, empty vector with MG132 treated for 4 h. The blot was probed with anti-mouse-REST antibody and anti-tubulin (loading control) antibodies.
There is a significant difference between REST (810-910) compared to control (595-694) peptide (n=5, p=0.0021) and REST(810-910) compared to S861/864A REST(810-910) (n=5, p=0.046). The difference between MG132 and REST(810-910) is not significant (n=5, p=0.7996, Sidak's multiple comparison test, error bars represent 95% confidence interval).
The Examples above used the REST (810-910) reporter as a surrogate substrate for signaling molecules that target S861/S864 on full-length REST. […]
(§2) Whole cell lysates were prepared and immunoprecipitated following the procedures in Ballas N et al, 2001 supra and Nesti E et al, Mol Biol Cell 15, 4073-4088 (2004); incorporated by reference herein. Western blots were performed by standard procedures using antibodies described below and analyzed using anti IgG conjugated to infrared dyes (ThermoFisher) on an Odyssey® infrared fluorescence imager (LiCor). […] Infrared fluorescence was detected on the Odyssey® imager (LiCor) in the 700 nm channel. […]

Pin1 [5] = target: T1, Pin1 (Homo sapiens, UniProt Q13526); test: Co-immunoprecipitation of GST-βTrCP with FLAG-REST in HEK293T cells after Pin1 inhibition; format: cell-based; conditions: FLAG-REST and GST-βTrCP 48 h, PiB 7.5 h and MG132 4 h
T1 construct: endogenous in cells; host or cells: HEK293T
T1 sequence (Q13526 whole entry): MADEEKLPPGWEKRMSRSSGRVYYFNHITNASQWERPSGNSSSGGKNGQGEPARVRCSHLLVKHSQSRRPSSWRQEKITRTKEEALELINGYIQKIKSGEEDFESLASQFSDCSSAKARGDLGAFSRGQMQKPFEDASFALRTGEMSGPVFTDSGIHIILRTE
Method: HEK293T cells were transfected with FLAG-REST (unmutated or S861A/S864A) and GST-βTrCP for 48 h prior to treatment with PiB for 7.5 h and MG132 for 4 h, and then immunoprecipitated. Western blots were probed with anti-FLAG or anti-GST.
(§3) HEK293T cells were transfected using Lipofectamine 2000 (Life Technologies) following the manufacturer's instructions. PC12 tet, PC12 tet-on FLAG-REST, and HEK293T cell lines were maintained as described in Ballas N et al 2001 supra. Neurospheres were isolated from E12.5 mouse cortices and cultured as described in Reynolds B A and Weiss S, Science 255, 1707-1710 (1992); incorporated by reference herein in neurobasal media supplemented with 2 mM L-glutamine, 100 U/mL penicillin, […] streptomycin, B27 supplement, 20 ng/mL EGF, and 10 ng/mL FGF-2, all from Life Technologies. Neurospheres were passaged every 3-4 days using Accutase® (Sigma). […]
as §2

Pin1 [6] = target: T2, Pin1 (Rattus norvegicus, UniProt A0ABK0LFD7); test: Western blot of FLAG-REST protein levels in PC12 tet-on FLAG-REST cells treated with Pin1 inhibitor; format: cell-based; conditions: PC12 tet-on FLAG-REST cells induced 24 h with doxycycline, PiB or vehicle for 7.5 h
T2 construct: endogenous in cells; host or cells: PC12 tet-on FLAG-REST cells
T2 sequence (A0ABK0LFD7 1-162): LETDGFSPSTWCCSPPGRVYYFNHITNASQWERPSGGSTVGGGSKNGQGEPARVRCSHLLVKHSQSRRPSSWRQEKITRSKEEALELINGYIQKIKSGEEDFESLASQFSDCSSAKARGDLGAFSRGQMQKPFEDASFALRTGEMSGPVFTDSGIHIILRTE
Method: PC12 tet-on FLAG-REST cells were induced 24 h with doxycycline, treated with PiB or vehicle for 7.5 h, and then extracted for analysis. Blots were probed with anti-FLAG (REST) and α-tubulin (loading control).
as §3, §2

Compound: O=C(NOCC1CC1)c1ccc(F)c(F)c1Nc1ccc(I)cc1Cl [PD184352]
- EGF-induced phosphorylation of S864 in REST (810-910)-GFP peptide (MEK [1]; HEK293T, PD184352 for 20 min, then recombinant EGF 10 min): inhibited
- Bands of doubly phosphorylated and non-phosphorylated REST (810-910) peptide (MEK [1]; REST (810-910) and GFP cDNA co-transfected into HEK cells, presence and absence of PD184352 (FIG. 10)): loss of band representing the doubly phosphorylated peptide
- S861/S864 phosphorylation in WT REST peptide (MEK [1]; transfected HEK293T cells, 10 mM PD184352 for 4 hours): partial loss of S861/S864 phosphorylation
- FLAG-REST protein levels (Western blot) (MEK [2]): increased FLAG-REST protein levels

Compound: EGF: recombinant EGF, upstream activator of ERK
- Phosphorylation of S864 in REST (810-910)-GFP peptide (mobility shift) (MEK [1]; HEK293T, recombinant EGF or vehicle 10 min): induces phosphorylation of S864

Compound: CC(C)C[C@@H](C=O)NC(=O)[C@H](CC(C)C)NC(=O)[C@H](CC(C)C)NC(=O)OCc1ccccc1 [MG132] (Cbz-Leu-Leu-Leu-aldehyde)
- REST stabilization by CTDSP1, further effect of MG132 (endogenous REST protein [3]): not increased further
- Endogenous full-length REST protein levels (endogenous REST protein [4]): did not stabilize the Rest protein further

- βTrCP binding to REST (co-immunoprecipitation) (Pin1 [5]): diminished βTrCP binding to REST
- REST protein levels (anti-FLAG Western blot) (Pin1 [6]): higher REST protein levels
Compound: CCOC(=O)CN1C(=O)c2ccc3c4c(ccc(c24)C1=O)C(=O)N(CC(=O)OCC)C3=O [PiB]
